Experimental data as given in ChEMBL document CHEMBL3880394, “Benzazole derivatives and their use as jnk modulators” (2003).

How the values were obtained:
[1] = Antiinflammatory activity in human Jurkat cells assessed as inhibition of PMA/ionomycine-induced IL2 production preincubated for 30 mins followed by PMA/ionomycine induction measured after 24 hrs by ELISA relative to control; format: functional
[2] = Neuroprotective activity against NGF, arabinosine deficiency and anti NGF antibody-mediated cell death in sympathetic neurons from new born rat superior cervical ganglia assessed as survival rate after 24 hrs by MTT assay relative to control; format: functional, Sympathetic neuron

| Structure (SMILES) | inhibition (INH) [1] | Survival [2] |
| --- | --- | --- |
| N#CC(c1ccnc(Cl)n1)c1nc2ccccc2s1 (stereo not given) | >30% | <=80% |
| N#CC(c1ccnc(OCc2ccccn2)n1)c1nc2ccccc2s1 (stereo not given) | >30% |  |
| N#CC(c1ccnc(OCc2ccc(Cl)c(Cl)c2)n1)c1nc2ccccc2s1 (stereo not given) |  | <=80% |
| N#CC(c1ccnc(NCCCn2ccnc2)n1)c1nc2ccccc2s1 (stereo not given) |  | <=80% |
